For this assay, the target named is T1, GlmR (Enterococcus faecalis, UniProt A0ACD6TA08).
T1 construct: gene OG1RF_10501
Put plainly: thermal shift assay (SYPRO Orange). The class given is binding. The settings on record: 10 uM protein, 1 mM ligand.

Consider `CC(=O)N[C@H]1[C@@H](OP(=O)(O)OP(=O)(O)OC[C@H]2O[C@@H](n3ccc(=O)[nH]c3=O)[C@H](O)[C@@H]2O)O[C@H](CO)[C@@H](O)[C@@H]1O` [UDP-GlcNAc], for which the thermal shift entry was “When incubated with UDP-GlcNAc, both YvcJ and GlmR exhibited clear thermal shifts”.

Values taken from publication PMC10986989, “Reciprocal regulation of enterococcal cephalosporin resistance by products of the autoregulated yvcJ-glmR-yvcL operon enhances fitness during cephalosporin exposure” (PLOS Genetics, 2024).
